According to patent US12077503B2, “Substituted cyclic amides and their use as herbicides” (FMC CORPORATION, priority 2015, dated 2024):

Columns and labels:
Type in all cases: in vivo
[1] = test system: barnyardgrass (Echinochloa crus-galli); experiment: Test A preemergence; settings: Echinochloa crus-galli, pre-emergence, 240 h, 0 to 100 scale where 0 is no effect and 100 is complete control, read-out: Barnyardgrass plant response rating; for pest or weed control at 31 g/ha: 31 g ai/ha, Preemergence; for pest or weed control at 125 g/ha: 125 g ai/ha, preemergence, visual injury rating, approximately 10 d
Procedure, shortened: (§1)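 Greenhouse, ~10 d after spray; visual injury vs untreated controls, 0 = no effect, 100 = complete control. Preemergence: directed soil spray over planted seeds. Postemergence: plants 2–10 cm, 1–2 leaf stage. Loam/sand blend. Compound in non-phytotoxic solvent with surfactant.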

[2] = test system: pigweed (Amaranthus retroflexus); experiment: Test A preemergence; settings: Amaranthus retroflexus, pre-emergence, 240 h, 0 to 100 scale where 0 is no effect and 100 is complete control, read-out: Pigweed plant response rating; for pest or weed control at 31 g/ha: 31 g ai/ha, Preemergence; for pest or weed control at 125 g/ha: 125 g ai/ha, preemergence, visual injury rating, approximately 10 d
[3] = test system: giant foxtail (Setaria faberii); experiment: Test A preemergence; settings: Setaria faberi, pre-emergence, 240 h, 0 to 100 scale where 0 is no effect and 100 is complete control, read-out: Foxtail, Giant plant response rating; for pest or weed control at 31 g/ha: 31 g ai/ha, Preemergence; for pest or weed control at 125 g/ha: 125 g ai/ha, preemergence, visual injury rating, approximately 10 d
Procedure, shortened: as §1

[4] = test system: Kochia (Kochia scoparia); experiment: Test A preemergence; settings: Bassia scoparia, pre-emergence, 240 h, 0 to 100 scale where 0 is no effect and 100 is complete control, read-out: Kochia plant response rating; for pest or weed control at 31 g/ha: 31 g ai/ha, Preemergence; for pest or weed control at 125 g/ha: 125 g ai/ha, preemergence, visual injury rating, approximately 10 d
Procedure, shortened: as §1

[5] = test system: ryegrass, Italian (Italian ryegrass, Lolium multiflorum); experiment: Test A preemergence; settings: Lolium multiflorum, pre-emergence, 240 h, 0 to 100 scale where 0 is no effect and 100 is complete control, read-out: Ryegrass, Italian plant response rating; for pest or weed control at 31 g/ha: 31 g ai/ha, Preemergence; for pest or weed control at 125 g/ha: 125 g ai/ha, preemergence, visual injury rating, approximately 10 d
Procedure, shortened: as §1

[6] = test system: ragweed (common ragweed, Ambrosia elatior); experiment: Test A preemergence; settings: Ambrosia artemisiifolia, pre-emergence, 240 h, 0 to 100 scale where 0 is no effect and 100 is complete control, read-out: Ragweed plant response rating; for pest or weed control at 31 g/ha: 31 g ai/ha, Preemergence; for pest or weed control at 125 g/ha: 125 g ai/ha, preemergence, visual injury rating, approximately 10 d
Procedure, shortened: as §1

[7] = test system: corn (Zea mays); experiment: Test A postemergence; settings: Zea mays, post-emergence, 240 h, Postemergence, read-out: Corn plant response rating (0 to 100 scale); for plant injury at 125 g/ha: 125 g ai/ha, visual rating about 10 d after treatment; for plant injury at 31 g/ha: 31 g ai/ha, 0 is no effect, 100 is complete control
Procedure, shortened: as §1

[8] = test system: blackgrass (Alopecurus myosuroides); experiment: Test A postemergence; settings: Alopecurus myosuroides, post-emergence, 240 h, Postemergence, read-out: Blackgrass plant response rating (0 to 100 scale); for pest or weed control at 125 g/ha: 125 g ai/ha, visual rating about 10 d after treatment; for pest or weed control at 31 g/ha: 31 g ai/ha, 0 is no effect, 100 is complete control
Procedure, shortened: as §1

[9] = test system: barnyardgrass (Echinochloa crus-galli); experiment: Test A postemergence; settings: Echinochloa crus-galli, post-emergence, 240 h, Postemergence; for pest or weed control at 125 g/ha: 125 g ai/ha, visual rating about 10 d after treatment, read-out: Barnyardgrass plant response rating (0 to 100 scale, 0 no effect, 100 complete control); for pest or weed control at 31 g/ha: 31 g ai/ha, 0 is no effect, 100 is complete control, read-out: Barnyardgrass plant response rating (0 to 100 scale)
Procedure, shortened: as §1

[10] = test system: pigweed (Amaranthus retroflexus); experiment: Test A postemergence; settings: Amaranthus retroflexus, post-emergence, 240 h, Postemergence, read-out: Pigweed plant response rating (0 to 100 scale); for pest or weed control at 125 g/ha: 125 g ai/ha, visual rating about 10 d after treatment; for pest or weed control at 31 g/ha: 31 g ai/ha, 0 is no effect, 100 is complete control
Procedure, shortened: as §1

[11] = test system: giant foxtail (Setaria faberii); experiment: Test A postemergence; settings: Setaria faberi, post-emergence, 240 h, Postemergence, read-out: Foxtail, Giant plant response rating (0 to 100 scale); for pest or weed control at 125 g/ha: 125 g ai/ha, visual rating about 10 d after treatment; for pest or weed control at 31 g/ha: 31 g ai/ha, 0 is no effect, 100 is complete control
Procedure, shortened: as §1

[12] = test system: wheat (Triticum aestivum); experiment: Test A postemergence; settings: Triticum aestivum, post-emergence, 240 h, Postemergence, read-out: Wheat plant response rating (0 to 100 scale); for plant injury at 125 g/ha: 125 g ai/ha, visual rating about 10 d after treatment; for plant injury at 31 g/ha: 31 g ai/ha, 0 is no effect, 100 is complete control
Procedure, shortened: as §1

[13] = test system: Kochia (Kochia scoparia); experiment: Test A postemergence; settings: Bassia scoparia, post-emergence, 240 h, Postemergence, read-out: Kochia plant response rating (0 to 100 scale); for pest or weed control at 125 g/ha: 125 g ai/ha, visual rating about 10 d after treatment; for pest or weed control at 31 g/ha: 31 g ai/ha, 0 is no effect, 100 is complete control
Procedure, shortened: as §1

[14] = test system: ryegrass, Italian (Italian ryegrass, Lolium multiflorum); experiment: Test A postemergence; settings: Lolium multiflorum, post-emergence, 240 h, Postemergence, read-out: Ryegrass, Italian plant response rating (0 to 100 scale); for pest or weed control at 125 g/ha: 125 g ai/ha, visual rating about 10 d after treatment; for pest or weed control at 31 g/ha: 31 g ai/ha, 0 is no effect, 100 is complete control
Procedure, shortened: as §1

[15] = test system: ragweed (common ragweed, Ambrosia elatior); experiment: Test A postemergence; settings: Ambrosia artemisiifolia, post-emergence, 240 h, Postemergence, read-out: Ragweed plant response rating (0 to 100 scale); for pest or weed control at 125 g/ha: 125 g ai/ha, visual rating about 10 d after treatment; for pest or weed control at 31 g/ha: 31 g ai/ha, 0 is no effect, 100 is complete control
Procedure, shortened: as §1

[16] = test system: Galium (catchweed bedstraw, Galium aparine); experiment: Test A postemergence; settings: Galium, post-emergence, 240 h, Postemergence, read-out: Galium plant response rating (0 to 100 scale); for pest or weed control at 125 g/ha: 125 g ai/ha, visual rating about 10 d after treatment; for pest or weed control at 31 g/ha: 31 g ai/ha, 0 is no effect, 100 is complete control
Procedure, shortened: as §1

[17] = test system: ducksalad (Heteranthera limosa); experiment: Test B flooded paddy test; settings: Heteranthera limosa, 250 g ai/ha, Flood; 0 to 100 scale where 0 is no effect and 100 is complete control; read-out: Ducksalad plant response rating
Procedure, shortened: (§2)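 Plants at 2-leaf stage flooded to 3 cm above soil, with compounds applied directly to paddy water and that depth maintained. Plants kept in greenhouse 13–15 d. Visual rating versus controls on a 0 (no effect) to 100 (complete control) scale.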

[18] = test system: barnyardgrass (Echinochloa crus-galli); experiment: Test B flooded paddy test; settings: Echinochloa crus-galli, 250 g ai/ha, Flood; 0 to 100 scale where 0 is no effect and 100 is complete control; read-out: Barnyardgrass plant response rating
Procedure, shortened: as §2

[19] = test system: rice (Oryra sativa); experiment: Test B flooded paddy test; settings: Oryza sativa, 250 g ai/ha, Flood; 0 to 100 scale where 0 is no effect and 100 is complete control; read-out: Rice plant response rating
Procedure, shortened: as §2

[20] = test system: sedge, umbrella (small-flower umbrella sedge, Cyperus difformis); experiment: Test B flooded paddy test; settings: Cyperus difformis, 250 g ai/ha, Flood; 0 to 100 scale where 0 is no effect and 100 is complete control; read-out: Sedge, Umbrella plant response rating
Procedure, shortened: as §2

Cc1ccc([C@H]2CN(C)C(=O)[C@@H]2C(=O)Nc2c(F)c(F)c(F)c(F)c2F)cc1 [Compound 1292]
70%: pest or weed control at 31 g/ha [3]
80%: pest or weed control at 125 g/ha [3]
0%: pest or weed control at 31 g/ha [1] | pest or weed control at 31 g/ha [5] | pest or weed control at 31 g/ha [6] | pest or weed control at 125 g/ha [6] | plant injury at 125 g/ha [7] | plant injury at 31 g/ha [7] | pest or weed control at 125 g/ha [8] | pest or weed control at 31 g/ha [8] | pest or weed control at 125 g/ha [9] | pest or weed control at 31 g/ha [9] | pest or weed control at 125 g/ha [10] | pest or weed control at 31 g/ha [10] | pest or weed control at 125 g/ha [11] | pest or weed control at 31 g/ha [11] | plant injury at 125 g/ha [12] | plant injury at 31 g/ha [12] | pest or weed control at 125 g/ha [13] | pest or weed control at 31 g/ha [13] | pest or weed control at 125 g/ha [14] | pest or weed control at 31 g/ha [14] | pest or weed control at 125 g/ha [15] | pest or weed control at 31 g/ha [15] | pest or weed control at 125 g/ha [16] | pest or weed control at 31 g/ha [16] | pest or weed control at 250 g/ha [17] | pest or weed control at 250 g/ha [18] | pest or weed control at 250 g/ha [20]
60%: pest or weed control at 31 g/ha [4] | pest or weed control at 125 g/ha [4]
15%: pest or weed control at 250 g/ha [19]
40%: pest or weed control at 31 g/ha [2] | pest or weed control at 125 g/ha [2] | pest or weed control at 125 g/ha [5]
50%: pest or weed control at 125 g/ha [1]

O=C(Nc1ccccc1F)C1C(=O)N(CC(F)F)CC1c1cccc(C(F)(F)F)c1 (stereo not drawn) [Compound 1293]
0%: pest or weed control at 31 g/ha [1] | pest or weed control at 31 g/ha [2] | pest or weed control at 125 g/ha [2] | pest or weed control at 31 g/ha [3] | pest or weed control at 31 g/ha [4] | pest or weed control at 125 g/ha [4] | pest or weed control at 31 g/ha [5] | pest or weed control at 125 g/ha [5] | pest or weed control at 31 g/ha [6] | pest or weed control at 125 g/ha [6] | plant injury at 125 g/ha [7] | plant injury at 31 g/ha [7] | pest or weed control at 125 g/ha [8] | pest or weed control at 31 g/ha [8] | pest or weed control at 31 g/ha [9] | pest or weed control at 125 g/ha [10] | pest or weed control at 31 g/ha [10] | pest or weed control at 125 g/ha [11] | pest or weed control at 31 g/ha [11] | plant injury at 125 g/ha [12] | plant injury at 31 g/ha [12] | pest or weed control at 125 g/ha [13] | pest or weed control at 31 g/ha [13] | pest or weed control at 125 g/ha [14] | pest or weed control at 31 g/ha [14] | pest or weed control at 125 g/ha [15] | pest or weed control at 31 g/ha [15] | pest or weed control at 125 g/ha [16] | pest or weed control at 31 g/ha [16] | pest or weed control at 250 g/ha [17] | pest or weed control at 250 g/ha [18] | pest or weed control at 250 g/ha [19] | pest or weed control at 250 g/ha [20]
20%: pest or weed control at 125 g/ha [1] | pest or weed control at 125 g/ha [3] | pest or weed control at 125 g/ha [9]
